Reference: article PMC5244392, “Interspecies cathelicidin comparison reveals divergence in antimicrobial activity, TLR modulation, chemokine induction and regulation of phagocytosis” (Scientific Reports, 2017)

Key:
Type in all cases: cell-based, murine
[1] = tested on: DNA-induced TLR-9 activation of RAW264.7 cells; experiment: Enhancement of DNA (ODN-1826)-induced TNFα release; conditions: 2.5 nM ODN-1826, TNFα after 24 h; for Enhancement of DNA-induced TLR-9 activation, in words: 20 μM for the named peptides; for Summary class, TLR activation DNA: peptide 0.08-20 μM, − = no significant effect, N = 3
From the text: (§1) TLR ligands: LPS Escherichia coli (E. coli) O111:B4 (TLR-4), LTA S. aureus (TLR-2), and ODN-1826 (TLR-9) were obtained from Invivogen (Toulouse, France). Chicken CATH-2 (chCATH-2) and PMAP-36 were synthesized by Fmoc-chemistry at China Peptides (CPC scientific, Sunnycale, CA) and all other cathelicidins were synthesized by Fmoc-chemistry at the Academic Centre for Dentistry Amsterdam (Amsterdam, The Netherlands) (Table 1). Purity of all peptides was >95% as analyzed by HPLC-MS.
(§2) RAW264.7 cells were stimulated with 100 ng/ml LPS E. coli O111:B4, 1 μg/ml LTA S. aureus or 2.5 nM ODN-1826 in the presence of various concentrations of different cathelicidins. TNFα release was determined after 2 h for LPS and LTA stimulation and 24 h for ODN-1826 stimulation. CXCL10, CCL5 and IL-10 release were all determined after 24 h stimulation. As a control, RAW264.7 cells were stimulated for 2 h with 10^6 CFU/ml live or heat-killed (70 °C, 0.5 h) E. coli O78, followed by a double wash with cell culture medium and subsequent 22 h incubation in cell culture medium supplemented with 250 μg/ml gentamicin.
(§3) ELISA Duoset kits for mouse TNFα, CCL5, CXCL10 and IL-10 were obtained from R&D systems (Minneapolis, MN, USA) and ELISAs were performed according to the manufacturer’s protocol. Samples were stored at −20 °C until analysis and, if needed, diluted in 1% BSA in PBS, pH 7.4. Absorbance at 450 nm was determined in a FLUOstar Omega microplate reader (BMG Labtech GmbH) and corrected for absorbance at 570 nm. Results were analyzed with MARS data analysis software (BMG Labtech GmbH).
(§4) Figure 3 Effects of cathelicidins on TLR-2, -4, and -9 activation. LPS (100 ng/ml) (A), LTA (1 μg/ml) (B) or ODN-1826 (2.5 nM) (C) was mixed with different cathelicidins (0.08 μM, 0.31 μM, 1.25 μM, 5 μM, and 20 μM) before addition to the RAW264.7 cells. Supernatants were collected after 2 hours (A,B) or 24 hours (C) incubation and TNFα expression was measured. The dotted line represents the average cytokine release of control samples. Results are presented as average +/− SEM (N = 3). Statistical differences were determined by Two-way ANOVA with Bonferroni post-hoc test.
All other peptides had no effect on the DNA-induced TLR-9 activation. To ensure that the increase of TNFα secretion was indeed enhancement of DNA-induced activation and not a result of direct induction by cathelicidins, TNFα release was determined after 24 h cathelicidin stimulation (see Supplementary Fig. S2D). None of the cathelicidins induced TNFα release after 24 h, (if anything, most cathelicidins caused a small reduction of TNFα secretion) indicating the increased activation is indeed enhancement of DNA-induced activation.

[2] = tested on: LTA-induced TLR-2 activation of RAW264.7 cells; experiment: LTA neutralization: LTA-induced TNFα release; conditions: peptide 0.08-20 μM; for Summary class, TLR activation LTA: 1 μg/ml LTA S. aureus, TNFα after 2 h, − = no significant effect, N = 3; for LTA neutralization / inhibition of LTA-induced activation, in words: 1 μg/ml S. aureus LTA, 2 h, TNFα
From the text: as §1, §2, §3
RAW264.7 cells were stimulated for 2 h with 100 ng/ml LPS from E. coli O111:B4 in the presence of different cathelicidins at various concentrations to study the capability of LPS neutralization (Fig. 3A). […] Next, RAW264.7 cells were stimulated with 1 μg/ml S. aureus LTA for 2 h in the presence of various cathelicidin concentrations, to test LTA neutralization (Fig. 3B).
as §4

[3] = tested on: CXCL10 (IP-10) release by RAW264.7 cells; experiment: Cathelicidin induced CXCL10 release; conditions: for Increase of CXCL10 secretion after 24 h stimulation: 20 μM peptide; for Summary class, chemokines CXCL10 (24 h): 24 h stimulation, peptide 0.08-20 μM, − = no significant effect, N = 3
Procedure: (§5) E. coli O78 (Zoetis Animal Health, Kalamazoo, MI, USA), E. coli ATCC 25922, Staphylococcus aureus ATCC 29213, and methicillin resistant Staphylococcus aureus (MRSA) (WKZ-2, human clinical isolate) were grown overnight from a glycerol stock in Mueller Hinton Broth (MHB) (Becton Dickinson, USA). Before use, bacteria were grown to mid-log phase in MHB for 2 hours at 37 °C, 200 RPM. Murine RAW264.7 macrophages (ATCC-TIB-71) were obtained from the American Type Culture Collection (ATCC, Manassas, VA, USA) and cultured in DMEM (41966-029; Thermo Fisher Scientific, Waltham, MA, USA) supplemented with 10% FCS (Bodinco B.V., Alkmaar, the Netherlands) (DMEM + FCS) at 37 °C, 5.0% CO2. Cells were seeded in 96-wells plates at 5 × 10^5 cells/ml or 12-wells plates at 2 × 10^5/ml for adherence overnight prior to stimulation.
as §2, §3
(§6) Since cathelicidins have membrane-perturbing properties which might affect the host’s cell membrane, first the possible cytotoxicity of the cathelicidins to RAW264.7 cells was assessed. […] Next, RAW264.7 cells were stimulated with the cathelicidins at various concentrations for 2 h and 24 h, after which release of CCL2 (MCP-1), CCL5 (RANTES), CXCL10 (IP-10), TNFα and IL-10 was determined.
(§7) Figure 2 Cathelicidin induced chemokine and cytokine release by RAW264.7 cells. RAW264.7 cells were incubated for 2 h and 24 h with cathelicidins (0.08 μM, 0.31 μM, 1.25 μM, 5 μM, and 20 μM), after which the supernatants were harvested and tested for release of CCL2 at 2 h (A) and 24 h (B), CCL5 at 24 h (C) and CXCL10 at 24 h (D). Dotted line represents average cytokine release of control samples. Results are presented as average +/− SEM (N = 3). Statistical differences were determined by Two-way ANOVA with Bonferroni post-hoc test.

[4] = tested on: CCL5 (RANTES) release by RAW264.7 cells; experiment: Cathelicidin induced CCL5 release; conditions: for Induction of CCL5 secretion after 24 h stimulation: 20 μM peptide; for Summary class, chemokines CCL5 (24 h): 24 h stimulation, peptide 0.08-20 μM, − = no significant effect, N = 3
Procedure: as §5, §2, §3, §6
as §7, with “Results are presented as average +/− SEM (N = 3).” left out

[5] = tested on: CCL2 (MCP-1) release by RAW264.7 cells; experiment: Cathelicidin induced CCL2 release; conditions: for Summary class, chemokines CCL2 (2 h): 2 h stimulation, − = no significant effect, N = 3
Procedure: as §5, §3, §6, §7

In the case of “RIIDLLWRVRRPQKPKFVTVWVR [PMAP-23, porcine α-helical cathelicidin, 23 residues, charge +6]”, the “Enhancement of DNA-induced TLR-9 activation, in words” value (from here on “Enhancement … in words”) [1] is reported as “able to enhance DNA-induced TLR-9 activation”, the “Summary class, TLR activation DNA” value [1] is reported as “↑ (↑ = significant increase at 20 μM)” and the “Summary class, TLR activation LTA” value [2] is reported as “↓ (↓ = significant decrease at 20 μM)”.

In the case of “RLKELITTGGQKIGEKIRRIGQRIKDFFKNLQPREEKS [Peptide K9CATH, dog cathelicidin, 38 residues, charge +6]”, the “Increase of CXCL10 secretion after 24 h stimulation” value (“Increase of CXCL10 secretion” for short) [3] is reported as 2–3 fold, the “Summary class, chemokines CXCL10 (24 h)” value [3] is reported as “↑ (↑ = significant increase at 20 μM)” and the “Induction of CCL5 secretion after 24 h stimulation” value [4] is reported as 2–3 fold. For the same substance, the “Summary class, chemokines CCL5 (24 h)” value [4] was “↑ (↑ = significant increase at 20 μM)”.

“RFGRFLRKIRRFRPKVTITIQGSARF-NH2 [chCATH-2, chicken CATH-2, C-terminal amide, 26 residues, charge +9]” was tested, and the “Optimal concentration to induce DNA activation” value [1] was 1.25 µM, the “Summary class, TLR activation DNA” value [1] was “↑↑ (↑↑ = significant increase ≤5 μM)” and the “Enhancement of CCL2 secretion after 2 h stimulation” value (shortened to “Enhancement of CCL2 secretion”) ([5]; 20 μM peptide) was 3–4 fold. For the same substance, the “Summary class, chemokines CCL2 (2 h)” value ([5]; peptide 0.08-20 μM) was “↑ (↑ = significant increase at 20 μM)”, the “Summary class, TLR activation LTA” value [2] was “↓↓ (↓↓ = significant decrease ≤5 μM)” and the “LTA neutralization / inhibition of LTA-induced activation, in words” value [2] was “potently inhibited”. For the same substance, the “Induction of CCL5 secretion after 24 h stimulation” value [4] was 2–3 fold and the “Summary class, chemokines CCL5 (24 h)” value [4] was “↑ (↑ = significant increase at 20 μM)”.

“KRRHWFPLSFQEFLEQLRRFRDQLPFP [eCATH-2, equine CATH-2, 27 residues, charge +4]” was tested, and the “Enhancement … in words” value [1] was “able to enhance DNA-induced TLR-9 activation”, the “Summary class, TLR activation DNA” value [1] was “↑ (↑ = significant increase at 20 μM)” and the “Increase of CXCL10 secretion” value [3] was 2–3 fold. The “Summary class, chemokines CXCL10 (24 h)” value [3] was “↑ (↑ = significant increase at 20 μM)”, the “Summary class, TLR activation LTA” value [2] was “↓↓ (↓↓ = significant decrease ≤5 μM)” and the “LTA neutralization / inhibition of LTA-induced activation, in words” value [2] was “significantly inhibited”.

“Ac-GRFRRLRKKTRKRLKKIGKVLKWIPPIVGSIPLGCG [PMAP-36, porcine α-helical cathelicidin, N-acetylated, 36 residues, charge +13]” was tested, and the “Enhancement of CCL2 secretion” value ([5]; 5 μM peptide) was 3–4 fold.

With “GLLRKGGEKIGEKLKKIGQKIKNFFQKLVPQPEQ [CRAMP, murine cathelicidin, 34 residues, charge +6]” the “Increase of CXCL10 secretion” value [3] was 2–3 fold, the “Summary class, chemokines CXCL10 (24 h)” value [3] was “↑ (↑ = significant increase at 20 μM)” and the “Summary class, TLR activation LTA” value [2] was “↓ (↓ = significant decrease at 20 μM)”.

“RRRPRPPYLPRPRPPPFFPPRLPPRIPPGFPPRFPPRFP [PR-39, porcine proline-rich cathelicidin forming a polyproline helix, 39 residues, charge +10]” was tested, and the “Enhancement … in words” value [1] was “able to enhance DNA-induced TLR-9 activation”, the “Summary class, TLR activation DNA” value [1] was “↑ (↑ = significant increase at 20 μM)” and the “Effect on CCL2 secretion after 24 h stimulation, in words” value ([5]; 24 h, peptide 0.08-20 μM) was “non-significant”.

“RVKRFWPLVPVAINTVAAGINLYKAIRRK [chCATH-3, chicken CATH-3, 29 residues, charge +7]” was tested, and the “Enhancement of CCL2 secretion” value ([5]; 5 μM peptide) was 3–4 fold, the “Enhancement of CCL2 secretion” value ([5]; 20 μM peptide) was 3–4 fold and the “Summary class, chemokines CCL2 (2 h)” value ([5]; peptide 0.08-20 μM) was “↑↑ (↑↑ = significant increase ≤5 μM)”.
